One data set can be described thus: DPPH assay. The following applies: methanol, 30 min, 517 nm. As for the experimental part: Free radical scavenging activity of compounds TP-10, TP-315 and TP-427 was evaluated using DPPH assay. Briefly, 25 µl of 0.2 mM of methanolic solution of DPPH ([…]) was mixed with 175 µl of varying concentrations (0.002–4.5 mg/ml) of the studied compounds dissolved in methanol. Reaction mixtures in the 96-well plate were incubated in the dark at room temperature for 30 min. The absorbance was measured at 517 nm against blank (which consists of all reagents without the investigated compounds) using a microplate reader (Epoch, BioTek Instruments, Inc., Winooski, VT, USA). As a reference, the antioxidant activity of vitamin C was evaluated. Each concentration of the compounds was assayed at least six times. The results were expressed as the IC50 (µg/ml) ± SD calculated using the linear regression analysis.

Another data set can be described thus: CUPRAC assay. The following applies: pH 7.0, 450 nm. The method, then:
Cupric reducing antioxidant capacity (CUPRAC) assay was performed according to the method by Apak et al.[20] with slight modifications. The CUPRAC reagent was prepared by mixing equal volume of CuCl2 (10 mM), neocuproine solution (7.5 mM), and acetate buffer (pH = 7.0). Subsequently, 50 µl of TP-10, TP-315, TP-427 (0.002–0.4 mg/ml) and 150 µl of CUPRAC reagent were pipetted into each well of 96-well plate (Nunc, Roskilde, Denmark). After pipetting, the plate was shaken for 5 min and then incubated for 25 min in the dark at room temperature. The absorbance of the solutions was read at 450 nm using a microplate reader (Epoch, BioTek Instruments, Inc., Winooski, VT, USA). At least six tests were performed for each concentration of the investigated compounds. The results were expressed as the IC50 (µg/ml) ± SD.

The subject of data set [1] is 6 Hz-induced psychomotor seizures. Also noted: method as in Barton et al. 25. The following applies: pretreatment time 15 min, ref Barton et al. 25, cited from earlier work.
Details of data set [2]: method as in Barton et al. 25. The following applies: ref Barton et al. 25, cited from earlier work.

Converted amounts (≈) assume the structure as drawn. Like-named read-outs stand apart in the source and are kept apart here. Bounds are passed on as bounds.

Results on 3 molecules are retold here after publication PMC7178883, “1,2,4-Triazole-based anticonvulsant agents with additional ROS scavenging activity are effective in a model of pharmacoresistant epilepsy” (Journal of Enzyme Inhibition and Medicinal Chemistry, 2020).

The ED50 is the midpoint of the dose-response relation.

On to `O=C1O[C@H]([C@@H](O)CO)C(O)=C1O` [Ascorbic acid, reference compound], for which the “IC50 ± SD, DPPH” value in “DPPH assay” was determined as 7.82 ± 0.54 µg/mL (≈ 44.4 µM). Besides, the “IC50 ± SD, CUPRAC” value in the data set “CUPRAC assay” worked out at 16.05 ± 0.48 µg/mL (≈ 91.1 µM).

Take `CCCC(CCC)C(=O)O` [Valproate, valproic acid]: in data set [1] (mouse 6 Hz test), the ED50 is 130.6 mg/kg. In data set [1], the “Protective index (TD50/ED50)” value is given as 2.8. For the same molecule, the TD50 in data set [2] (pretreatment time 15 min) is recorded as 363.3 mg/kg.

For the molecule `CC[C@@H](C(N)=O)N1CCCC1=O` [Levetiracetam], in data set [2] (pretreatment time 60 min), the TD50 is given as >500 mg/kg.
